According to patent publication US11945881B2, “Neoantigens expressed in ovarian cancer and their uses” (Janssen Biotech, Inc., priority 2020, dated 2024):

Assays:
CD8+ T cells = experiment: exogenous autologous normal donor restimulation assay, TNFα/IFNγ double positive CD8+ T cells by flow cytometry; type: cell-based, human; conditions: for Fold change (CD8+) vs. DMSO: maximum CD8+ T-cell response (TNFα and IFNγ); for Fold change (CD8+) vs. DMSO / Frequency (TNFα + IFNγ + CD8 T cells): donor independent, peptide pool 10 μg/mL, healthy donors; for Frequency (TNFα + IFNγ + CD8 T cells): maximum CD8+ T-cell response; for Immunogenic (yes/no): positive if CD8+ and/or CD4+ double positive TNFα/IFNγ frequency >=3-fold over DMSO and at least 0.01%
Description: (§1) The immunogenicity of neoantigens was assessed using the exogenous autologous normal donor restimulation assay. […] The lyophilized peptides were solubilized in 100% DMSO.
(§2) CD1c+ Dendritic Cells (CD1c+DC) isolated from human healthy PBMCs were thawed using media (IMDM (Gibco) supplemented with glutamine, HEPES, 5% human serum (Sigma), and 1× Pen-Strep). DC cells were resuspended in media supplemented with IL-4 (Peprotech, 20 ng/mL) and GM-CSF (Gibco, 20 ng/mL), plated in 6 well microplates, and rested overnight at 37° C. and 5% CO2 incubator. The following day, DC cells were counted and plated in a 96 well round bottom microplate at a concentration of 30,000 viable cells per well. Lyophilized neoantigen peptide pools (15-mer peptides with 8-mer overlapping peptide sequences) were solubilized in 100% DMSO with a stock concentration of 20 mg/mL Neoantigen peptides pools were added to DCs for a final concentration of 10 μg/mL and rested for 2 hours at 37° C. and 5% CO2 incubator. CEF Peptide Pool “Plus” (Cellular Technologies, Ltd.) was utilized as a positive control (each viral peptide at a final concentration of 4 ug/ml) and DMSO at the same final concentration (0.05%) as the experimental peptides was utilized as a negative control. After 2 hours, DC cells were irradiated with 50 gray of ionizing radiation. Autologous CD3+ Pan-T cells isolated from human normal PBMCs were thawed using media. Following irradiation, autologous Pan-T cells were added to the irradiated DCs at 300,000 viable cells per well. Human IL-15 (Peprotech) was added to all wells at final concentration of 10 ng/ml. Plates were incubated at 37° C. and 5% CO2 incubator for a total of 12 days. Media was refreshed every 2-3 days with IL-15 (R&D System, 10 ng/mL final concentration) and IL-2 (R&D systems, 10 IU/mL final concentration).
(§3) On Day 11, cells were re-stimulated with identical experimental peptide pools or controls, at same concentration as peptide stimulation on Day 1. Protein Inhibitor Cocktail (eBioscience) was added to every well and plate was incubated overnight for 14-16 hours at 37° C. and 5% CO2 incubator. On Day 12, cells were stained for surface and intracellular flow cytometry analysis. The cells were washed with PBS and stained with Live/Dead Fixable Aqua Dead Cell stain (Thermo-Fisher). Following the live/dead stain, cells were blocked using Biotin-Fre Fc Receptor Blocker (Accurate Chemical & Scientific Corp). Extracellular cellular flow panel ([…] per well in 50 μL) consisted of CD3 PerCP-Cy5.5 (Biolegend), CD4 BV421 (Biolegend), and CD8 APC-Cy7 (Biolegend). After extracellular staining, cells were fixed and permeabilized using Foxp3/Transcription Factor Staining Buffer Set (eBioscience) and stained for intracellular proteins (1:50 dilution) using TNFα FITC (R&D Systems) and IFNγ BV785 (Biolegend). Cells were washed and resuspended in stain buffer, analyzed, and recorded in a BD Celesta flow cytometer.
(§4) Flow cytometry analysis was conducted on FlowJo v10.6 software. Cells were gated on live, singlet, CD3+, CD4+ and CD8+ T cells. The CD8+ and CD4+ T cells were analyzed for TNFα and IFNγ expression.
(§5) The immunogenicity of neoantigens was first investigated in 9-16 healthy donors.

CD4+ T cells = experiment: exogenous autologous normal donor restimulation assay, TNFα/IFNγ double positive CD4+ T cells by flow cytometry; type: cell-based, human; conditions: donor independent, peptide pool 10 μg/mL, healthy donors; for Fold change (CD4+) vs. DMSO: maximum CD4+ T-cell response (TNFα and IFNγ); for Frequency (TNFα + IFNγ + CD4 T cells): maximum CD4+ T-cell response
Description: as §1, §2, §3, §4, §5

Sequence	Fold change (CD8+) vs. DMSO (CD8+ T cells)	Frequency (TNFα + IFNγ + CD8 T cells) (CD8+ T cells)	Immunogenic (yes/no) (CD8+ T cells)	Fold change (CD4+) vs. DMSO (CD4+ T cells)	Frequency (TNFα + IFNγ + CD4 T cells) (CD4+ T cells)
LCAISVDRCAALPARAPAPPRPARRPHRGLCAVRRPLGAPRRFVAVAVP [AS159, neoantigen, alternative splicing of DRD4]	39.04 fold	0.12%	Yes	12.5 fold	0.081%
LDLAGNARPCRSQSPTSSDQTPSVPSLGSPELPDGEEGGSPDGSPQESEQVRQGQHV [AS103, neoantigen, alternative splicing of GTF2IRD1]	48.82 fold	0.83%	Yes	6.62 fold	0.086%
LEEEFISEWRRCLLCSYLQW [AS63, neoantigen, alternative splicing of IMPG2]	185.74 fold	0.5%	Yes	13.54 fold	0.15%
LLFFVAGEVLRHEEFE [FUS15, neoantigen, gene fusion NXN->GLOD4]	8.84 fold	0.19%	yes	16.21 fold	0.08%
LLFPYNQLDLHLHRPSGSRKNEIHWDKCFSSED [AS68, neoantigen, alternative splicing of PKHD1L1]	17.52 fold	0.11%	Yes	5.43 fold	0.024%
LRLRPNRRRASSAQTAPTSSLSLWSGASRRRRPAGGHMWCTAGRPSSRSGQNLTGTCTMKPLAWETFPTCWAWWGTSWATQSGSGGMPSQAATASRCCWWWTTRWFASMARSMCRTMSSPS [AS1]	29.8 fold	0.57%	Yes	16.77 fold	0.15%
LRSLAGTYGRSPSPATRRKRSWSC [FUS25, neoantigen, gene fusion CLCF1->POLD4]	2.79 fold	0.048%	Yes	16.49 fold	0.059%
LSPGGACVDIDECDRQ [AS81, neoantigen, alternative splicing of FBN3]	10.83 fold	0.1%	Yes	3.22 fold	0.028%
MAGGVLRRLLCREPDRDGDKGASREETVVPLHIGDPVVLPGIGQCYSALF [FUS1, neoantigen, gene fusion TSTD1->F11R]	2.79 fold	0.06%	yes	5.43 fold	0.011%
MHRKLQARSPSLCTGHPPQAA [AS75, neoantigen, alternative splicing of TSPAN10]	2.64 fold	0.16%	Yes	3.46 fold	0.014%
MPGHGAICSGSSRQPD [AS82, neoantigen, alternative splicing of IMPG2]	13.55 fold	0.82%	Yes	5.88 fold	0.026%
MSQESDKNGLSSRSWMNTWILPEVL [AS102, neoantigen, alternative splicing of GRHL2]	5.65 fold	0.096%	Yes	4.47 fold	0.029%
NANSRLPEACEK [AS100, neoantigen, alternative splicing of FRYL]	63.36 fold	0.099%	Yes	6.02 fold	0.039%
NIEDVATEDGRHGGCHHGPGR [AS71, neoantigen, alternative splicing of SLC6A2]	11.78 fold	0.074%	Yes	10.95 fold	0.038%
NLQLLTQGYSGIWRYP [AS118, neoantigen, alternative splicing of SAMD12]	2.42 fold	0.038%	Yes	5.25 fold	0.034%
NYGNLFSLAGSLHFTA [AS89, neoantigen, alternative splicing of ZNF727]	142.04 fold	0.26%	Yes	7.02 fold	0.061%
PGHGAICREEV [AS62, neoantigen, alternative splicing of IMPG2]	28.06 fold	0.055%	Yes	14.25 fold	0.063%
PSLSTRLTSKDPQPLQSHYWGLIGNDPFLRSKKRVN [AS4, neoantigen, alternative splicing of MUC16]	7.55 fold	0.068%	Yes	11.53 fold	0.093%
PSPSTPNHSQQAICHPGRRP [AS105, neoantigen, alternative splicing of MPRIP]	1.76 fold	0.02%	Yes	14.72 fold	0.14%
PSSLPGPTGKYQSMVFGAWLMSVNISVYTLLEHG [AS140, neoantigen, alternative splicing of MUC16]	115.04 fold	0.22%	Yes	79.1 fold	0.14%
QATPSSILCFRLACLWLLRKGLLDLTW [AS15, neoantigen, alternative splicing of IMPG2]	48.05 fold	0.08%	Yes	11.36 fold	0.023%
QHLQQEACVTSAGKQS [AS19, neoantigen, alternative splicing of PLEKHG4B]	182.29 fold	0.7%	Yes	5.69 fold	0.06%
QLNLSETQFAQYAEIV [FUS2, neoantigen, gene fusion VAX2->ATP6V1B1]	593.75 fold	2.28%	yes	21.76 fold	0.026%
